Reference: PMC5770468, “Cardiac glycoside/aglycones inhibit HIV-1 gene expression by a mechanism requiring MEK1/2-ERK1/2 signaling” (Scientific Reports, 2018)
Like-named read-outs stand apart in the source and are kept apart here.

Tests used:
HIV-1 Rev = assay: Immunoblot of HIV-1 Rev (p19) in HeLa rtTA-HIV-ΔMls cells; format: cell-based
Method: (§1) To monitor HIV-1 gene expression or replication, Gag release into cell culture supernatants were assayed by ELISA using a p24^CA antigen capture assay kit (AIDS & Cancer Virus Program, NCI-Frederick, Frederick, MD USA). Media harvested from HIV clinical isolates were diluted ~10 fold (or as necessary) prior to performing this assay. For analysis of HIV-1 and SR protein expression (and phosphorylation states with calf intestinal alkaline phosphatase treatments), cells were lysed and analyzed by western blot as previously outlined. Phosphatase inhibitors (e.g. 10 mM sodium fluoride, 2 mM sodium orthovanadate) were added to solutions requiring phospho protein analyses. An anti-chicken NKA antibody (α6F, #a6F–c, Developmental Studies Hybridoma Bank, The University of Iowa, contributed by Douglas M. Fambrough, The Johns Hopkins University) was used as specified to detect NKA α1- and β1-subunits across species. […] Activation of MAPKs was determined by western blot quantitation and calculation of phospho/total protein levels. […] Images were exported as TIF files for assembly, rotation, and equal brightness/contrast adjustments in ImageJ or Microsoft Powerpoint. Some lanes were cropped and rearranged from the same blot/gel as indicated. In representative gel/blot sets, samples were electrophoresed from the same experiment as controls, resolved simultaneously on identically cast gel(s), transferred to same PVDF (by either wet electrophoretic or by Bio-Rad Trans-Blot® Turbo Transfer System), and detected at same time. Marked locations of molecular weight (MW) standards are shown on the left as a reference. […] SUnSET analysis of total cellular protein synthesis. HeLa rtTA-HIV-ΔMls cells were cultured in the presence/absence of compound and pathway inhibitor (if any) and Dox induced for ~24 h as already described, then treated with puromycin (10 μg/mL, Sigma-Aldrich, #P8833) for 30 min to label nascent proteins prior to harvest. As control, 10 µM of cycloheximide (Sigma-Aldrich, #C4849) was added to some cells prior to puromycin treatment. Cells were subsequently washed, whole cell lysates prepared, and proteins quantified by western blot using an anti-puromycin antibody (EMD Millipore, #anti-12D10) as described above. Transfection of plasmid DNA into cells. Transfection of pCMV6-HA-AKT-1 (WT, KM, or Myr) or CMV myc and with CMV tTA pA and CMV PLAP plasmids into HeLa rtTA-HIV-ΔMls cells were performed by polyethylene imine (PEI) transfection as previously described[9],[10].

clinical strains of HIV = assay: microbe, parasite or virus in culture; format: cell-based; details: for IC90 / IC50: Human immunodeficiency virus 1, PBMC, 336 h; for IC90: read-out: IC90, viral growth in HIV-infected PBMCs; for IC50: read-out: IC50 (nM) HIV-infected PBMCs
Method: PBMCs from HIV infected patients were depleted of CD8^+ T cells (Supplementary Fig. S3), activated by anti-CD3 and anti-CD28 antibodies, and treated 20 d with indicated concentrations of drug/compound. HIV particle formation was quantitated by p24^CA ELISA of cell supernatants and viability of cells were assayed by XTT. […] Graphs of viral growth (p24 protein levels) and cell viability (gray circles, adjacent y-axis) of cells treated with drug/compounds (red triangles) or DMSO (black circles) are shown. The drug 3TC and the CS digoxin (d–e) were provided for comparison. […] Dose-response curves of CS effects on HIV replication (relative Gag expression, black circles) and cell viability (gray circles) were measured on day 14.
PBMCs were then seeded to 24-well plates in the presence/absence of indicated drug/compounds (0.5 mL final) which were pre-diluted in RPMI^+++ in the same manner as described above. Every 3–4 days, ~0.25 mL of media was harvested for assays and replenished with ~0.25 mL of fresh medium with drug/compound and 20 U/mL of IL-2. HIV growth in cultures was monitored by p24^CA ELISA of cell supernatants harvested (detailed below) and the effect of compounds on cell viability were monitored by XTT assay.
as §1

[1] = p24CA ELISA, day 14, inferred near maximal IC50s

SMILES	Rev accumulation (HIV-1 Rev)	IC90 (clinical strains of HIV; Day14, p24CA ELISA)	IC50 (clinical strains of HIV; [1])	concentration to inhibit viral replication in HIV-infected PBMCs, fold lower than serum concentration in patients treated for heart conditions (clinical strains of HIV)	IC50 (clinical strains of HIV)	IC90 (clinical strains of HIV)
C[C@@H]1O[C@@H](O[C@H]2C[C@@H](O)[C@]3(CO)[C@H]4[C@H](O)C[C@]5(C)[C@@H](C6=CC(=O)OC6)CC[C@]5(O)[C@@H]4CC[C@]3(O)C2)[C@H](O)[C@H](O)[C@H]1O [Ouabain]	no effect on Rev accumulation					
C[C@]12CC[C@H](O)C[C@H]1CC[C@@H]1[C@@H]2CC[C@]2(C)[C@@H](C3=CC(=O)OC3)CC[C@]12O [Digitoxigenin]		2 nM	~1.1 nM			
CC(=O)O[C@H]1C[C@H](O[C@H]2[C@@H](O)C[C@H](O[C@H]3[C@@H](O)C[C@H](O[C@H]4CC[C@@]5(C)[C@H](CC[C@@H]6[C@@H]5C[C@@H](O)[C@]5(C)[C@@H](C7=CC(=O)OC7)CC[C@]65O)C4)O[C@@H]3C)O[C@@H]2C)O[C@H](C)[C@H]1O[C@@H]1O[C@H](CO)[C@@H](O)[C@H](O)[C@H]1O [Lanatoside C]	reduce Rev accumulation					
C[C@H]1O[C@@H](O[C@H]2[C@@H](O)C[C@H](O[C@H]3[C@@H](O)C[C@H](O[C@H]4CC[C@@]5(C)[C@H](CC[C@@H]6[C@@H]5CC[C@]5(C)[C@@H](C7=CC(=O)OC7)CC[C@]65O)C4)O[C@@H]3C)O[C@@H]2C)C[C@H](O)[C@@H]1O [Digitoxin]	no effect on Rev accumulation	7.5 nM	~1.3 nM	15–26 fold		
C[C@H]1O[C@@H](O[C@H]2[C@@H](O)C[C@H](O[C@H]3[C@@H](O)C[C@H](O[C@H]4CC[C@@]5(C)[C@H](CC[C@@H]6[C@@H]5C[C@@H](O)[C@]5(C)[C@@H](C7=CC(=O)OC7)CC[C@]65O)C4)O[C@@H]3C)O[C@@H]2C)C[C@H](O)[C@@H]1O [Digoxin]	reduce Rev accumulation				~1.1 nM	2 nM
